This is an account of results in the supplement of paper PMC11208160.
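Note: IS621 bridge recombinase in Escherichia coli cells against a fixed T5 target plasmid.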

This data set can be described thus: recombinant UMI read abundance after kanamycin selection (control-corrected) (log10(CPM+1)); higher = more efficient recombination; extreme values may be limits of the assay; sequences stand for … in AGTGCAGAGAAAATCGGCCAGTTTTCTCTGCCTGCAGTCCGCATGCCGTGGGACCCCTTGGGTTCTAACCTGTTGCCTAGATTTATGCAGCGGACTGCCTTTCTCCCAAAGTGATAAACCGG…AGGTTGGTTTCACT; site = the 11-nt donor. In a few lines:
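Sequencing read counts were converted to CPM, averaged over two replicates and scaled by control-derived factors. Results are given as log10(CPM+1). The reads covered the donor–target junction of recombinant UMIs from a pooled Escherichia coli screen of donor and donor-binding-loop pairs for the IS621 bridge recombinase.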
For the sequence “CGATGATCATGGACCGGTTTTCCCGGTAATCCGTATTTGCT (site CGATCATCTAG)”, the “recombinant UMI read abundance (log10)” value was 0.00821. For the sequence “CGATGATCATGGACCGGTTTTCCCGGTAATCCGTATTTGCT (site CGATGATCTAG)”, the “recombinant UMI read abundance (log10)” value came out at 2.46. As for “CGATGATCATGGACCGGTTTTCCCGGTAATCCGTATTTGCT (site CGATTATCTAG)”, the figure is 0.958; as for “CGATGGACATGGACCGGTTTTCCCGGTAATCCGTATTTGTT (site CGATAGACTAA)”, 1.25. As for “CGATGGACATGGACCGGTTTTCCCGGTAATCCGTATTTGTT (site CGATCGACTAA)”, the figure is 0.00844; as for “CGATGGACATGGACCGGTTTTCCCGGTAATCCGTATTTGTT (site CGATGGACTAA)”, 1.97; as for “CGATGGACATGGACCGGTTTTCCCGGTAATCCGTATTTGTT (site CGATTGACTAA)”, 0.00606. Turning to “CGATGGTCATGGACCGGTTTTCCCGGTAATCCGTATTTGCT (site CGATCATCTAG)”, the “recombinant UMI read abundance (log10)” value amounted to 0.

“CGATGGTCATGGACCGGTTTTCCCGGTAATCCGTATTTGCT (site CGATGGTCTAG)”: the “recombinant UMI read abundance (log10)” value turned out to be 2.8. As for “CGATTGGCATGGACCGGTTTTCCCGGTAATCCGTATTTGCA (site CGATTGGCTTG)”, the figure is 2.02. Regarding “CGCAATCCATGGACCGGTTTTCCCGGTAATCCGTATTTGTG (site CGCAATCCTCA)”, the “recombinant UMI read abundance (log10)” value was determined as 0.631. For the sequence “CGCAATCCATGGACCGGTTTTCCCGGTAATCCGTATTTGTG (site CGGAATCCTAA)”, the “recombinant UMI read abundance (log10)” value amounted to 0. As for “CGCAATGCATGGACCGGTTTTCCCGGTAATCCGTATTTGTT (site CGCAATGCTAA)”, the figure is 2.14; as for “CGCAATGCATGGACCGGTTTTCCCGGTAATCCGTATTTGTT (site CGGAATCCTAA)”, 0; as for “CGCAGCACATGGACCGGTTTTCCCGGTAATCCGTATTTGAC (site CGCAGCACTGT)”, 2.95.

For the sequence “CGCAGGCCATGGACCGGTTTTCCCGGTAATCCGTATTTGGG (site CGCAGGCCTCC)”, the “recombinant UMI read abundance (log10)” value amounted to 0. As for “CGCAGTACATGGACCGGTTTTCCCGGTAATCCGTATTTGCG (site CGCAGTACTCG)”, the figure is 0.962; as for “CGCATACCATGGACCGGTTTTCCCGGTAATCCGTATTTGAC (site CGCATACCTGT)”, 0.

With “CGCATAGCATGGACCGGTTTTCCCGGTAATCCGTATTTGTA (site CGCATAGCTTA)”, the “recombinant UMI read abundance (log10)” value stood at 2.51.

As to “CGCATTACATGGACCGGTTTTCCCGGTAATCCGTATTTGGC (site CGCATTACTGC)”, the “recombinant UMI read abundance (log10)” value is 1.28. For “CGCCCGGCATGGACCGGTTTTCCCGGTAATCCGTATTTGGT (site CGCCCGGCTAC)”, the “recombinant UMI read abundance (log10)” value was 1.31. With “CGCCCTCCATGGACCGGTTTTCCCGGTAATCCGTATTTGTT (site CGCCCTCCTAA)” the figure was 1.24. With “CGCCGAACATGGACCGGTTTTCCCGGTAATCCGTATTTGCT (site CGCCGAACTAG)” the figure was 2.15. With “CGCCGAACATGGACCGGTTTTCCCGGTAATCCGTATTTGCT (site CGCCGCACTAG)” the figure was 0.0174; with “CGCCGAACATGGACCGGTTTTCCCGGTAATCCGTATTTGCT (site CGCCGGACTAG)”, 0.95.

Regarding “CGCCGAACATGGACCGGTTTTCCCGGTAATCCGTATTTGCT (site CGCCGTACTAG)”, the “recombinant UMI read abundance (log10)” value was found to be 0.00823. On to “CGCCGGGCATGGACCGGTTTTCCCGGTAATCCGTATTTGAC (site CGCCGGGCTGT)”, for which the “recombinant UMI read abundance (log10)” value amounted to 1.46. As for “CGCCGTACATGGACCGGTTTTCCCGGTAATCCGTATTTGAT (site CGCCGTACTAA)”, the figure is 0.00486.

Consider “CGCCGTACATGGACCGGTTTTCCCGGTAATCCGTATTTGAT (site CGCCGTACTAC)”, for which the “recombinant UMI read abundance (log10)” value was found to be 0.0168.

For “CGCCGTACATGGACCGGTTTTCCCGGTAATCCGTATTTGAT (site CGCCGTACTAG)”, the “recombinant UMI read abundance (log10)” value came out at 0. With “CGCCGTACATGGACCGGTTTTCCCGGTAATCCGTATTTGAT (site CGCCGTACTAT)” the figure was 1.37; with “CGCCGTACATGGACCGGTTTTCCCGGTAATCCGTATTTGCC (site CGCCGTACTAG)”, 0.256. With “CGCCGTACATGGACCGGTTTTCCCGGTAATCCGTATTTGCC (site CGCCGTACTCG)” the figure was 0.114. As for “CGCCGTACATGGACCGGTTTTCCCGGTAATCCGTATTTGCC (site CGCCGTACTGG)”, the figure is 1.55; as for “CGCCGTACATGGACCGGTTTTCCCGGTAATCCGTATTTGCC (site CGCCGTACTTG)”, 0.384. Turning to “CGCCGTCCATGGACCGGTTTTCCCGGTAATCCGTATTTGCT (site CGCCGTACTAG)”, the “recombinant UMI read abundance (log10)” value was 0.0123.

Consider “CGCCGTCCATGGACCGGTTTTCCCGGTAATCCGTATTTGCT (site CGCCGTCCTAG)”, for which the “recombinant UMI read abundance (log10)” value stood at 0.666. With “CGCCGTCCATGGACCGGTTTTCCCGGTAATCCGTATTTGCT (site CGCCGTGCTAG)” the figure was 0. “CGCCGTCCATGGACCGGTTTTCCCGGTAATCCGTATTTGCT (site CGCCGTTCTAG)”: the “recombinant UMI read abundance (log10)” value came to 0.012. With “CGCCTAGCATGGACCGGTTTTCCCGGTAATCCGTATTTGTC (site TTGAATACTAG)” the figure was 0; with “CGCCTATCATGGACCGGTTTTCCCGGTAATCCGTATTTGGC (site CGCCTATCTGC)”, 1.93. With “CGCCTTACATGGACCGGTTTTCCCGGTAATCCGTATTTGCT (site CGCCATACTAG)”, the “recombinant UMI read abundance (log10)” value is 0.00361. With “CGCCTTACATGGACCGGTTTTCCCGGTAATCCGTATTTGCT (site CGCCCTACTAG)” the figure was 0.675; with “CGCCTTACATGGACCGGTTTTCCCGGTAATCCGTATTTGCT (site CGCCGTACTAG)”, 0. As for “CGCCTTACATGGACCGGTTTTCCCGGTAATCCGTATTTGCT (site CGCCTTACTAG)”, the figure is 1.57; as for “CGCCTTTCATGGACCGGTTTTCCCGGTAATCCGTATTTGAC (site AGCCTTTCTGT)”, 0; as for “CGCCTTTCATGGACCGGTTTTCCCGGTAATCCGTATTTGAC (site CGCCTTTCTGT)”, 0. Take “CGCCTTTCATGGACCGGTTTTCCCGGTAATCCGTATTTGAC (site GGCCTTTCTGT)”: the “recombinant UMI read abundance (log10)” value was found to be 0. As for “CGCCTTTCATGGACCGGTTTTCCCGGTAATCCGTATTTGAC (site TGCCTTTCTGT)”, the figure is 0; as for “CGCGAGCCATGGACCGGTTTTCCCGGTAATCCGTATTTGGA (site CGCGAGCCTTC)”, 0.181. Consider “CGCGCTCCATGGACCGGTTTTCCCGGTAATCCGTATTTGTC (site CGCGCTCCTGA)”, for which the “recombinant UMI read abundance (log10)” value was found to be 1.94. In the case of “CGCGGACCATGGACCGGTTTTCCCGGTAATCCGTATTTGGG (site CGAGGACCTCC)”, the “recombinant UMI read abundance (log10)” value stood at 0.0232. As for “CGCGGACCATGGACCGGTTTTCCCGGTAATCCGTATTTGGG (site CGCGGACCTCC)”, the figure is 0; as for “CGCGGACCATGGACCGGTTTTCCCGGTAATCCGTATTTGGG (site CGGGGACCTCC)”, 0.0209; as for “CGCGGACCATGGACCGGTTTTCCCGGTAATCCGTATTTGGG (site CGTGGACCTCC)”, 0.0246. Take “CGCGGCACATGGACCGGTTTTCCCGGTAATCCGTATTTGTA (site CGCGGCACTTA)”: the “recombinant UMI read abundance (log10)” value was 1.66. With “CGCGTCTCATGGACCGGTTTTCCCGGTAATCCGTATTTGTA (site CGCGTCTCTTA)” the figure was 3.26; with “CGCTAATCATGGACCGGTTTTCCCGGTAATCCGTATTTGGG (site CGCTAATCTCC)”, 1.5; with “CGCTACTCATGGACCGGTTTTCCCGGTAATCCGTATTTGCT (site CGCTACTCTAG)”, 2.85. As for “CGCTAGCCATGGACCGGTTTTCCCGGTAATCCGTATTTGCC (site CACTAGCCTGG)”, the figure is 0.0111; as for “CGCTAGCCATGGACCGGTTTTCCCGGTAATCCGTATTTGCC (site CCCTAGCCTGG)”, 0. As for “CGCTAGCCATGGACCGGTTTTCCCGGTAATCCGTATTTGCC (site CGCTAGCCTGG)”, the figure is 0.816; as for “CGCTAGCCATGGACCGGTTTTCCCGGTAATCCGTATTTGCC (site CTCTAGCCTGG)”, 1.8. As for “CGCTCAACATGGACCGGTTTTCCCGGTAATCCGTATTTGCT (site CGATCATCTAG)”, the “recombinant UMI read abundance (log10)” value is 0. With “CGCTCAACATGGACCGGTTTTCCCGGTAATCCGTATTTGCT (site CGCTCAACTAG)” the figure was 0; with “CGCTCAGCATGGACCGGTTTTCCCGGTAATCCGTATTTGGG (site AGCTCAGCTCC)”, 0; with “CGCTCAGCATGGACCGGTTTTCCCGGTAATCCGTATTTGGG (site CGCTCAGCTCC)”, 0.0677. As to “CGCTCAGCATGGACCGGTTTTCCCGGTAATCCGTATTTGGG (site GGCTCAGCTCC)”, the “recombinant UMI read abundance (log10)” value stood at 0.
